From PMC2857344 (2010) come the findings set out here.

As a reminder, the Kd is the free concentration of one partner at which half of the binding sites on the other are occupied at equilibrium, for simple one-to-one binding. A higher Kd goes with weaker binding.

The test system of assay [1] is WT theophylline-binding aptamer (RNA, aptamer) GGCGAUACCAGCCGAAAGGCCCUUGGCAGCGUC
Nature of the assay: ITC. The note with it: 100 mM NaCl, 10 mM MgCl2; 100 mM HEPES, 0.1 mM EDTA, pH 7.5, 25 °C.

The test system of assay [2] is WT 3MX-binding aptamer (RNA, aptamer) GGCGAUACCAGCCGAAAGGCCAUUGGAAGCGUC
Nature of the assay: ITC. The note with it: 100 mM NaCl, 10 mM MgCl2; 100 mM HEPES, 0.1 mM EDTA, pH 7.5, 25 °C.

For assay [3], the system named is P10 (3MX-binding aptamer) (RNA, aptamer, 2-aminopurine at 10 (replaces A10)) GGCGAUACCAGCCGAAAGGCCAUUGGAAGCGUC
Nature of the assay: ITC. The note with it: 100 mM NaCl, 10 mM MgCl2; 100 mM HEPES, 0.1 mM EDTA, pH 7.5, 25 °C.

The subject of assay [4] is P27 (3MX-binding aptamer) (RNA, aptamer, 2-aminopurine at 27) GGCGAUACCAGCCGAAAGGCCAUUGGAAGCGUC
Nature of the assay: steady-state 2-aminopurine fluorescence titration. The note with it: 100 mM NaCl, 10 mM MgCl2; 100 mM HEPES, 0.1 mM EDTA, pH 7.5, 25 °C; 100 nM RNA.

Assay [5] deals with P10 (theophylline-binding aptamer) (RNA, aptamer, 2-aminopurine at 10 (replaces A10)) GGCGAUACCAGCCGAAAGGCCCUUGGCAGCGUC
Nature of the assay: ITC. The note with it: 100 mM NaCl, 10 mM MgCl2; 100 mM HEPES, 0.1 mM EDTA, pH 7.5, 25 °C.

For assay [6], the system named is P10Z11 (theophylline-binding aptamer) (RNA, aptamer, 2-aminopurine at 10 (replaces A10); 7-deazaguanine at 11) GGCGAUACCAGCCGAAAGGCCCUUGGCAGCGUC
Nature of the assay: ITC. The conditions noted are these: 100 mM NaCl, 10 mM MgCl2; 100 mM HEPES, 0.1 mM EDTA, pH 7.5, 25 °C.

For the compound `Cn1c(=O)[nH]c(=O)c2[nH]cnc21`, the Kd in assay [1] came out at 1.6 ± 0.5 µM; in assay [2], 2.7 ± 2.0 µM; in assay [3], 24 ± 5 µM; in assay [4], 3.6 ± 0.3 µM.

`Cn1c(=O)c2[nH]cnc2n(C)c1=O`: the Kd in assay [1] worked out at 0.86 ± 0.12 µM; in assay [5], 9.4 ± 0.8 µM; in assay [6], 9.4 ± 0.7 µM.
